Tested on: cognitive function of a human
Test: Cognitrax test in placebo-controlled randomized double-blind clinical tests A and B
Assay type: in vivo
Set-up: Reaction time / Complex attention / Cognitive flexibility / Social acuity / Non-verbal reasoning / Working memory / Continuous attention / Simple attention: scale not given here
Description: A Cognitrax test is known as such an examination that can assess a plurality of domains or items of cognitive function. The Cognitrax test is a cognitive function examination service practiced on the Web based on the cognitive function examination technique developed by CNS Vital Signs in the United States. In the Cognitrax test, among a total of 10 types of tests, which are verbal memory test, visual memory test, finger tapping test, symbol digit coding test (SDC test), Stroop test, shifting attention test, continuous performance test, perception of emotion test, reasoning test and four part continuous performance test, a test is carried out in accordance with the purpose of the examination to digitize the examination result regarding each of a total of 16 types of items at most, which are neurocognition index, composite memory, verbal memory, visual memory, psychomotor speed, reaction time, complex attention, cognitive flexibility, processing speed, executive function, social acuity, non-verbal reasoning, working memory, continuous attention, simple attention and motor speed.
Two types of placebo-controlled randomized double-blind two-group parallel comparison tests were carried out as clinical tests. […] Specifically, capsules comprising 100 mg of dextrin per capsule were used as the placebo food.
The screening examination was carried out to select 60 subjects for each test (a total of 120 subjects). MMSE (Mini Mental State Examination) is an examination for assessing the degree of progression of dementia or the like based on the score thereof with 30 as the perfect score, wherein dementia is suspected with a score of 23 or lower.
• (1) Japanese male and female at the age of 40 or higher • (2) People aware of reduction in cognitive function • (3) People who can continuously ingest the test food every day for 12 weeks • (4) People with an MMSE score of 24 or higher • (5) People who have received sufficient explanation of the purpose/content of the clinical test, have the ability to give consent, voluntarily applied to participate in the clinical test with sufficient understanding, and gave consent to the participation in the clinical test on paper
The total of 120 subjects were randomly divided into test A active group, test A placebo group, test B active group and test B placebo group with 30 subjects in each group. Each subject of the test A active group ingested two capsules of the active food, each subject of the test A placebo group ingested two capsules of the placebo food, each subject of the test B active group ingested one capsule of the active food and each subject of the test B placebo group ingested one capsule of the placebo food.
Each subject followed the schedule shown in the table below and ingested one or two of the assigned capsules together with water for 12 weeks from two weeks after the initial screening examination. All subjects had no particular instruction during the ingestion period and freely took their meals.
As shown with ● in the test schedule in Table 1, Cognitrax was carried out a total of five times, which are upon screening, before starting test food sample ingestion, after four weeks of ingestion, after eight weeks of ingestion and after twelve weeks of ingestion, and the RBANS neuropsychological test was carried out a total of two times, which are before staring test food ingestion and after twelve weeks of ingestion.

[1] = test B 100 mg, before ingestion
[2] = test B 100 mg, before ingestion, mean ± SD

NCCCC(=O)O [GABA, γ-aminobutyric acid]
Cognition flexibility: difference between active food and placebo food groups (test B 100 mg, 4 w): −3.6 | Complex attention: difference between active food and placebo food groups (test B 100 mg, 4 w): −4.0 | Composite memory: difference between active food and placebo food groups (test B 100 mg, 4 w): 7.2 | Continuous attention: difference between active food and placebo food groups (test B 100 mg, 4 w): −0.6 | Executive function: difference between active food and placebo food groups (test B 100 mg, 4 w): −3.2 | Motor speed: difference between active food and placebo food groups (test B 100 mg, 4 w): 6.9 | Non-verbal reasoning: difference between active food and placebo food groups (test B 100 mg, 4 w): 0.5 | Processing speed: difference between active food and placebo food groups (test B 100 mg, 4 w): 0.8 | Psychomotor speed: difference between active food and placebo food groups (test B 100 mg, 4 w): 5.3 | Reaction time: difference between active food and placebo food groups (test B 100 mg, 4 w): 0.8 | Simple attention: difference between active food and placebo food groups (test B 100 mg, 4 w): −5.8 | Social acuity: difference between active food and placebo food groups (test B 100 mg, 4 w): −4.4 | Verbal memory: difference between active food and placebo food groups (test B 100 mg, 4 w): 9.1 | Visual memory: difference between active food and placebo food groups (test B 100 mg, 4 w): 2.4 | Working memory: difference between active food and placebo food groups (test B 100 mg, 4 w): 0.4 | Cognitive flexibility (test B 100 mg, 4 w, mean ± SD): 105.8 ± 11.3 | Complex attention (test B 100 mg, 4 w, mean ± SD): 106.3 ± 12.9 | Continuous attention (test B 100 mg, 4 w, mean ± SD): 111.8 ± 7.2 | Reaction time (test B 100 mg, 4 w, mean ± SD): 97.8 ± 10.8 | Simple attention (test B 100 mg, 4 w, mean ± SD): 97.8 ± 25.2 | Social acuity (test B 100 mg, 4 w, mean ± SD): 90.5 ± 16.7 | Working memory (test B 100 mg, 4 w, mean ± SD): 110.4 ± 9.3 | Cognition flexibility: difference between active food and placebo food groups (test B 100 mg, 8 w): −0.5 | Complex attention: difference between active food and placebo food groups (test B 100 mg, 8 w): −0.4 | Composite memory: difference between active food and placebo food groups (test B 100 mg, 8 w): 7.4 | Continuous attention: difference between active food and placebo food groups (test B 100 mg, 8 w): −0.8 | Executive function: difference between active food and placebo food groups (test B 100 mg, 8 w): −0.4 | Motor speed: difference between active food and placebo food groups (test B 100 mg, 8 w): 7.3 | Non-verbal reasoning: difference between active food and placebo food groups (test B 100 mg, 8 w): 0.5 | Processing speed: difference between active food and placebo food groups (test B 100 mg, 8 w): 1.5 | Psychomotor speed: difference between active food and placebo food groups (test B 100 mg, 8 w): 6.3 | Reaction time: difference between active food and placebo food groups (test B 100 mg, 8 w): 1.4 | Simple attention: difference between active food and placebo food groups (test B 100 mg, 8 w): 2.8 | Social acuity: difference between active food and placebo food groups (test B 100 mg, 8 w): 6.1 | Verbal memory: difference between active food and placebo food groups (test B 100 mg, 8 w): 8.8 | Visual memory: difference between active food and placebo food groups (test B 100 mg, 8 w): 3.1 | Working memory: difference between active food and placebo food groups (test B 100 mg, 8 w): −1.8 | Complex attention (test B 100 mg, 8 w, mean ± SD): 109.6 ± 10.3 | Continuous attention (test B 100 mg, 8 w, mean ± SD): 110.2 ± 8.9 | Non-verbal reasoning (test B 100 mg, 8 w, mean ± SD): 106.2 ± 12.2 | Reaction time (test B 100 mg, 8 w, mean ± SD): 97.9 ± 10.0 | Simple attention (test B 100 mg, 8 w, mean ± SD): 101.3 ± 13.0 | Social acuity (test B 100 mg, 8 w, mean ± SD): 95.4 ± 17.0 | Working memory (test B 100 mg, 8 w, mean ± SD): 109.8 ± 9.5 | Cognition flexibility: difference between active food and placebo food groups (test B 100 mg, 12 w): −2.3 | Complex attention: difference between active food and placebo food groups (test B 100 mg, 12 w): −2.5 | Composite memory: difference between active food and placebo food groups (test B 100 mg, 12 w): 5.5 | Continuous attention: difference between active food and placebo food groups (test B 100 mg, 12 w): 0.0 | Executive function: difference between active food and placebo food groups (test B 100 mg, 12 w): −2.4 | Motor speed: difference between active food and placebo food groups (test B 100 mg, 12 w): 6.5 | Non-verbal reasoning: difference between active food and placebo food groups (test B 100 mg, 12 w): 3.9 | Processing speed: difference between active food and placebo food groups (test B 100 mg, 12 w): 2.4 | Psychomotor speed: difference between active food and placebo food groups (test B 100 mg, 12 w): 5.4 | Reaction time: difference between active food and placebo food groups (test B 100 mg, 12 w): −1.7 | Simple attention: difference between active food and placebo food groups (test B 100 mg, 12 w): −6.5 | Social acuity: difference between active food and placebo food groups (test B 100 mg, 12 w): 4.6 | Verbal memory: difference between active food and placebo food groups (test B 100 mg, 12 w): 6.8 | Visual memory: difference between active food and placebo food groups (test B 100 mg, 12 w): 2.1 | Working memory: difference between active food and placebo food groups (test B 100 mg, 12 w): 0.9 | Complex attention (test B 100 mg, 12 w, mean ± SD): 109.9 ± 10.1 | Continuous attention (test B 100 mg, 12 w, mean ± SD): 110.8 ± 13.8 | Motor speed (test B 100 mg, 12 w, mean ± SD): 108.3 ± 12.9 | Non-verbal reasoning (test B 100 mg, 12 w, mean ± SD): 107.5 ± 10.6 | Simple attention (test B 100 mg, 12 w, mean ± SD): 99.2 ± 21.3 | Social acuity (test B 100 mg, 12 w, mean ± SD): 97.2 ± 17.0 | Working memory (test B 100 mg, 12 w, mean ± SD): 112.2 ± 7.9 | Cognition flexibility: difference between active food and placebo food groups [1]: 2.4 | Complex attention: difference between active food and placebo food groups [1]: 3.0 | Composite memory: difference between active food and placebo food groups [1]: 5.2 | Continuous attention: difference between active food and placebo food groups [1]: 1.2 | Executive function: difference between active food and placebo food groups [1]: 2.1 | Motor speed: difference between active food and placebo food groups [1]: 6.4 | Non-verbal reasoning: difference between active food and placebo food groups [1]: 3.1 | Processing speed: difference between active food and placebo food groups [1]: 1.5 | Psychomotor speed: difference between active food and placebo food groups [1]: 4.5 | Reaction time: difference between active food and placebo food groups [1]: 1.9 | Simple attention: difference between active food and placebo food groups [1]: 3.3 | Social acuity: difference between active food and placebo food groups [1]: 0.8 | Verbal memory: difference between active food and placebo food groups [1]: 6.4 | Visual memory: difference between active food and placebo food groups [1]: 2.0 | Working memory: difference between active food and placebo food groups [1]: 2.6 | Cognitive flexibility [2]: 105.9 ± 10.0 | Continuous attention [2]: 111.6 ± 6.9 | Executive function [2]: 105.5 ± 9.9 | Non-verbal reasoning [2]: 102.6 ± 14.1 | Reaction time [2]: 98.1 ± 9.0 | Simple attention [2]: 101.2 ± 14.9 | Social acuity [2]: 92.6 ± 16.0 | Working memory [2]: 110.5 ± 7.9 | scores regarding motor speed, GABA group compared to the placebo group (test B, at least after eight weeks of ingestion): significant improvement

Source: patent US20260053764A1, “COMPOSITION FOR PREVENTING DETERIORATION IN COGNITIVE FUNCTION AND/OR IMPROVING COGNITIVE FUNCTION” (PHARMA FOODS INTERNATIONAL CO., LTD., priority 2020, published 2026)
